Patent US8728515B2, “Adjuvants for use in vaccination” (Bangor University, priority 2008, dated 2014)

What was measured:
C57BL/6 mice = experiment: Inflammatory cell infiltration to the airways and lung tissue damage after intratracheal mycolic acid liposomes; format: in vivo; settings: liposomes intratracheally, 25 μg mycolic acids/100 μl/mouse, after 48 hours
Method: (§1) Female C57BL/6J mice were purchased from Janvier and housed under specific pathogen free conditions in individually ventilated cages and fed ad libitum. Mice were 8-12 weeks old at the start of experiments.
(§2) Briefly, the compounds were mixed with phosphatidylcholine (Sigma) in chloroform. The chloroform was evaporated and the lipids recovered in sterile saline. After ultrasound sonication and vortexing, samples of 25 μg mycolic acids/100 μl/mouse were administered intratracheally. A liposome control was prepared similarly, but without the addition of any mycolic acid compound.
In order to be considered safe for human administration, compounds should preferably cause as little local inflammation or resulting tissue changes as possible.
After 48 hours, mice were sacrificed and a broncho-alveolar lavage (BAL) was performed to measure the airway cell types and numbers by flowcytometry. Increased cell numbers and the appearance of granulocytes (mainly neutrophils) in the BAL-fluid are indicative for cell recruitment to the airways as result of an inflammatory reaction.
Lavaged lungs were ectomised to allow for histo-pathological examination of the lung tissue. A haematoxylin and eosin staining of the paraffin lung sections was followed by a thorough examination by a skilled pathologist who scored the sections according to the following criteria in a double-blinded manner: […]

airway CD11c+ cells = experiment: Gene transcription profiling of airway CD11c+ cells (RT-qPCR on broncho-alveolar lavage cells after intratracheal liposomes); format: in vivo, mouse; settings: liposomes intratracheally, after 48 hours
Method: as §1, §2
Airway CD11c^+ cells include alveolar macrophages and dendritic cells, which are professional phagocytes and the most important cell types in the early recognition of non-self threats to the airways. Next to mounting an immediate appropriate innate immune response to these threats, CD11c^+ cells alert and instruct adaptive immune responses by means of 3 different signals: antigen-presentation, surface expression of T-cell co-stimulatory molecules and secretion of instruction cytokines. Whereas dendritic cells migrate to the draining lymph nodes in order to initiate a peripheral antigen-specific immune response, alveolar macrophages remain in the airways to further control local inflammation, but also to locally attract and orchestrate the acquired immune response by lymphocytes.
In order for a locally applied vaccine to be effective, safe adjuvants that give the appropriate signal to CD11c^+ cells are needed to both increase the immunogenicity of the vaccine and direct the type of the acquired immune response. […] After 48 hours, the mice were sacrificed and broncho-alveolar lavage performed to measure the CD11c^+-cell gene transcription by RT-qPCR.

CCCCCCCCCCCCCCCCCCCCCCCC[C@@H](C(=O)O)[C@H](O)CCCCCCCCCCCCCCC[C@@H]1C[C@@H]1CCCCCCCCCCCCCCCCCCC(=O)[C@@H](C)CCCCCCCCCCCCCCCCCC (single isomer, unassigned) [Example 3]
melting point: 66 to 68 °C

CCCCCCCCCCCCCCCCCCCCCCCC[C@@H](C(=O)O)[C@H](O)CCCCCCCCCCCCCCCC[C@H]1C[C@@H]1[C@@H](C)CCCCCCCCCCCCCCCCCCC(=O)C(C)CCCCCCCCCCCCCCCCCC (some centres unmarked) [Compound 4]
lung tissue changes (histo-pathological examination of lung sections) (C57BL/6 mice): did not cause any significant lung tissue changes

CCCCCCCCCCCCCCCCCCCCCCCC[C@@H](C(=O)O)[C@H](O)CCCCCCCCCCCCCCCCC[C@@H]1CC1CCCCCCCCCCCCCCCC[C@@H](OC)[C@@H](C)CCCCCCCCCCCCCCCCCC (some centres unmarked) [Compound 6]
type of macrophage activation (iNOS = classical, Fizz1 = alternative marker) (airway CD11c+ cells; alveolar macrophages): mixed type of activation | KC (CXCL1) expression (airway CD11c+ cells): increased | MCP-1 (CCL2) expression (airway CD11c+ cells): enhance MCP-1 expression even to a greater extend than crude-MA | expression of IL-12p40 (airway CD11c+ cells): strongly stimulate | induction of expression of IL-10 (airway CD11c+ cells): maintained | expression of the inflammatory cytokines TNF-alpha and IL-6 (airway CD11c+ cells; compared with crude-MA): less pronounced or absent
